# Experiments:
# human LTA4 hydrolase = biological target: T1, human LTA4 hydrolase (Homo sapiens, UniProt P09960); experiment: LTA4H Enzyme assay (peptidase, Arg-AMC cleavage); format: biochemical; details: LTA4H enzyme 1 nM, Arg-AMC substrate 50 μM, room temperature 1 h, fluorescence 380/460 nm
# T1 sequence (P09960 1-611): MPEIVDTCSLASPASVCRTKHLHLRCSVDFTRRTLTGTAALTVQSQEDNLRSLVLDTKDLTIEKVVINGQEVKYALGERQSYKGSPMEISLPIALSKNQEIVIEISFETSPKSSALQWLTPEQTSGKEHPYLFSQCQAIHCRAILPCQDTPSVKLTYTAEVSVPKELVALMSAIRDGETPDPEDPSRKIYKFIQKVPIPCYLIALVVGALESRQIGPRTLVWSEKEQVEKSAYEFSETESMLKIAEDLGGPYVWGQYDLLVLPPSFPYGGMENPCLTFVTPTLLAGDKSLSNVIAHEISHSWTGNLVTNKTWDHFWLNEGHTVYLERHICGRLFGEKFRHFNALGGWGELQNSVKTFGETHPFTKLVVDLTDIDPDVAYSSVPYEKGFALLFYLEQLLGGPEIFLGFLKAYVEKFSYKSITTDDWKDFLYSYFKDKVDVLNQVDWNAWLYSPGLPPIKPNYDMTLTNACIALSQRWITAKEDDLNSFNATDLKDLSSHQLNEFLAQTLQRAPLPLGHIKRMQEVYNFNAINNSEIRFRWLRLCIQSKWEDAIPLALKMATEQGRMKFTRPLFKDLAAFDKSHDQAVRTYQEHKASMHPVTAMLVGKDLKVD
# Summary of the method: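 Human LTA4H (1 nM final) incubated with compound and Arg-AMC (50 μM final) in 50 mM Tris-HCl pH 7.5, 100 mM KCl, 0.5% BSA, 1 h at room temperature. Product read as AMC fluorescence (ex 380/em 460 nm); IC50 reported.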
# [1] = test system: LTB4 synthesis in human whole blood; experiment: human whole blood (HWB) assay, inhibition of LTB4 production; format: cell-based; details: heparinized human whole blood, calcimycin 20 μM stimulation, plasma LTB4
# Summary of the method: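 Heparinized human whole blood preincubated with compound 15 min at 37 °C, then stimulated with 20 μM (final) calcimycin for 30 min at 37 °C. Plasma LTB4 measured by antibody-based HTRF; IC50 reported.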
IC50 (human LTA4 hydrolase),IC50 [1],SMILES
0.77 nM,390 nM,"O=c1cccc2n1C[C@H]1C[C@@H]2CN(Cc2ccc3cc(Oc4ccc(-c5ccn[nH]5)cn4)ccc3n2)C1 [Example 213, (1R,5S)-3-{6-[5-(2H-Pyrazol-3-yl)-pyridin-2-yloxy]-quinolin-2-ylmethyl}-1,2,3,4,5,6-hexahydro-1,5-methano-pyrido[1,2-a][1,5]diazocin-8-one]"
0.13 nM,170 nM,"CCOCC1CCN(Cc2nc3cc(Oc4ccc(-c5ccn[nH]5)cc4)ccc3[nH]2)CC1 [Example 193, 2-(4-Ethoxymethyl-piperidin-1-ylmethyl)-5-[4-(2H-pyrazol-3-yl)-phenoxy]-1H-benzoimidazole]"
0.51 nM,110 nM,"c1cc(-c2ccc(Oc3ccc4c(c3)OC(CN3CCCC3)C4)nc2)[nH]n1 (stereo not shown) [Example 126, 5-(2H-Pyrazol-3-yl)-2-(2-pyrrolidin-1-ylmethyl-2,3-dihydro-benzofuran-6-yloxy)-pyridine]"
5 nM,680 nM,"c1ccc(OC2CCN(Cc3ccc4cc(Oc5ccc(-c6ccn[nH]6)cn5)ccc4n3)CC2)nc1 [Example 215, 6-[5-(2H-Pyrazol-3-yl)-pyridin-2-yloxy]-2-[4-(pyridin-2-yloxy)-piperidin-1-ylmethyl]-quinoline]"
0.097 nM,110 nM,"c1cc(-c2ccc(Oc3ccc4c(c3)OC(CN3CCCC3)C4)cc2)[nH]n1 (stereo not shown) [Example 218, 5-[4-(2-Pyrrolidin-1-ylmethyl-2,3-dihydro-benzofuran-6-yloxy)-phenyl]-1H-pyrazole]"
0.88 nM,360 nM,"CC(=O)N1CCN(Cc2ccc3cc(Oc4ccc(-c5ccn[nH]5)cn4)ccc3n2)[C@H](CO)C1 [Example 42, 1-((S)-3-Hydroxymethyl-4-{6-[5-(2H-pyrazol-3-yl)-pyridin-2-yloxy]-quinolin-2-ylmethyl}-piperazin-1-yl)-ethanone]"
0.84 nM,210 nM,"CC(=O)NC1CCN(Cc2ccc3cc(Oc4ccc(-c5cc[nH]n5)cn4)ccc3n2)CC1 [Example 237, N-(1-{6-[5-(1H-Pyrazol-3-yl)-pyridin-2-yloxy]-quinolin-2-ylmethyl}-piperidin-4-yl)-acetamide]"
0.39 nM,190 nM,"CNC(=O)C1CCN(CCc2coc3cc(Oc4ccc(-c5ccn[nH]5)cn4)ccc23)CC1 [Example 138, 1-(2-{6-[5-(2H-Pyrazol-3-yl)-pyridin-2-yloxy]-benzofuran-3-yl}-ethyl)-piperidine-4-carboxylic acid methylamide]"
0.14 nM,320 nM,"c1cc(-c2ccc(Oc3ccc4[nH]c(CN5CC6(COC6)C5)nc4c3)cc2)[nH]n1 [Example 72, 2-(2-Oxa-6-aza-spiro[3.3]hept-6-ylmethyl)-5-[4-(2H-pyrazol-3-yl)-phenoxy]-1H-benzoimidazole]"
0.32 nM,200 nM,"c1cc(-c2ccc(Oc3ccc4[nH]c(CC5CCOCC5)nc4c3)cc2)[nH]n1 [Example 202, 5-[4-(2H-Pyrazol-3-yl)-phenoxy]-2-(tetrahydro-pyran-4-ylmethyl)-1H-benzoimidazole]"
1.2 nM,210 nM,"CO[C@@H]1CCN(Cc2ccc3cc(Oc4ccc(-c5ccn[nH]5)cn4)ccc3n2)C1 [Example 205, 2-((R)-3-Methoxy-pyrrolidin-1-ylmethyl)-6-[5-(2H-pyrazol-3-yl)-pyridin-2-yloxy]-quinoline]"
0.14 nM,240 nM,"O[C@H]1CCN(Cc2nc3ccc(Oc4ccc(-c5ccn[nH]5)cc4)cc3[nH]2)C1 [Example 66, (S)-1-{6-[4-(2H-Pyrazol-3-yl)-phenoxy]-1H-benzoimidazol-2-ylmethyl}-pyrrolidin-3-ol]"
0.054 nM,170 nM,"c1cc(-c2ccc(Oc3ccc4[nH]c(CN5C[C@H]6CC[C@@H](C5)O6)nc4c3)cc2)[nH]n1 [Example 227, 3-{5-[4-(2H-Pyrazol-3-yl)-phenoxy]-1H-benzoimidazol-2-ylmethyl}-8-oxa-3-aza-bicyclo[3.2.1]octane]"
0.57 nM,190 nM,"CNC(=O)C1CCN(CC2Cc3ccc(Oc4ccc(-c5ccn[nH]5)cc4)cc3O2)CC1 (stereo not shown) [Example 137, 1-{6-[4-(2H-Pyrazol-3-yl)-phenoxy]-2,3-dihydro-benzofuran-2-ylmethyl}-piperidine-4-carboxylic acid methylamide]"
0.56 nM,180 nM,"CC(=O)N1CCCN(CCC2COc3cc(Oc4ccc(-c5ccn[nH]5)cn4)ccc32)CC1 (stereo not shown) [Example 135, 1-[4-(2-{6-[5-(2H-Pyrazol-3-yl)-pyridin-2-yloxy]-2,3-dihydro-benzofuran-3-yl}-ethyl)-[1,4]diazepan-1-yl]-ethanone]"
0.13 nM,130 nM,"c1cc(-c2ccc(Oc3ccc4[nH]c(CN5CCC(CN6CCOCC6)CC5)nc4c3)cc2)[nH]n1 [Example 225, 2-(4-Morpholin-4-ylmethyl-piperidin-1-ylmethyl)-5-[4-(2H-pyrazol-3-yl)-phenoxy]-1H-benzoimidazole]"
0.5 nM,110 nM,"CNCc1ccc2cc(Oc3ccc(-c4ccn[nH]4)cn3)ccc2n1 [Example 25, Methyl-{6-[5-(2H-pyrazol-3-yl)-pyridin-2-yloxy]-quinolin-2-ylmethyl}-amine]"
0.7 nM,240 nM,"CC(=O)N1CCC(N(C)Cc2ccc3cc(Oc4ccc(-c5ccn[nH]5)cn4)ccc3n2)CC1 [Example 110, 1-[4-(Methyl-{6-[5-(2H-pyrazol-3-yl)-pyridin-2-yloxy]-quinolin-2-ylmethyl}-amino)-piperidin-1-yl]-ethanone]"
0.92 nM,190 nM,"O=C1CCCN1C1CCN(CC2Cc3ccc(Oc4ccc(-c5ccn[nH]5)cn4)cc3O2)CC1 (stereo not shown) [Example 129, 1-(1-{6-[5-(2H-Pyrazol-3-yl)-pyridin-2-yloxy]-2,3-dihydro-benzofuran-2-ylmethyl}-piperidin-4-yl)-pyrrolidin-2-one]"
0.26 nM,99 nM,"O=C1OCCN1C1CCN(CCc2coc3cc(Oc4ccc(-c5ccn[nH]5)cn4)ccc23)CC1 [Example 130, 3-[1-(2-{6-[5-(2H-Pyrazol-3-yl)-pyridin-2-yloxy]-benzofuran-3-yl}-ethyl)-piperidin-4-yl]-oxazolidin-2-one]"
0.35 nM,99 nM,"CN(C)CC1CCc2cc(Oc3ccc(-c4ccn[nH]4)cc3)ccc2O1 (stereo not shown) [Example 8, dimethyl-{6-[4-(2H-pyrazol-3-yl)-phenoxy]-chroman-2-ylmethyl}-amine]"
0.59 nM,200 nM,"C[C@H](O)C(=O)N1CCN(Cc2ccc3cc(Oc4ccc(-c5ccn[nH]5)cc4)ccc3n2)CC1 [Example 13, (S)-2-hydroxy-1-(4-{6-[4-(2H-pyrazol-3-yl)-phenoxy]-quinolin-2-ylmethyl}-piperazin-1-yl)-propan-1-one]"
0.47 nM,190 nM,"CC(=O)N[C@@H]1CCN(CCn2cc3cc(Oc4ccc(-c5ccn[nH]5)cc4)ccc3n2)C1 [Example 200, N-[(R)-1-(2-{5-[4-(2H-Pyrazol-3-yl)-phenoxy]-indazol-2-yl}-ethyl)-pyrrolidin-3-yl]-acetamide]"
0.57 nM,130 nM,"CC(C)C(=O)N1CCN(Cc2ccc3cc(Oc4ccc(-c5ccn[nH]5)cn4)ccc3n2)CC1 [Example 26, 2-Methyl-1-(4-{6-[5-(2H-pyrazol-3-yl)-pyridin-2-yloxy]-quinolin-2-ylmethyl}-piperazin-1-yl)-propan-1-one]"
0.55 nM,150 nM,"CC(=O)N1CCN(Cc2ccc3cc(Oc4ccc(-c5cc[nH]n5)cn4)ccc3n2)CC1 [Example 231, 1-(4-{6-[5-(1H-Pyrazol-3-yl)-pyridin-2-yloxy]-quinolin-2-ylmethyl}-piperazin-1-yl)-ethanone]"
0.12 nM,81 nM,"c1cc(-c2ccc(Oc3ccc4nn(CCN5CCCC5)cc4c3)cc2)[nH]n1 [Example 217, 5-[4-(2H-Pyrazol-3-yl)-phenoxy]-2-(2-pyrrolidin-1-yl-ethyl)-2H-indazole]"
0.089 nM,95 nM,"CN(Cc1nc2cc(Oc3ccc(-c4ccn[nH]4)cc3)ccc2[nH]1)[C@@H]1CCOC1 [Example 78, Methyl-{5-[4-(2H-pyrazol-3-yl)-phenoxy]-1H-benzoimidazol-2-ylmethyl}-(R)-tetrahydro-furan-3-yl-amine]"
0.8 nM,230 nM,"O=C1COCCN1C1CCN(Cc2ccc3cc(Oc4ccc(-c5ccn[nH]5)cn4)ccc3n2)CC1 [Example 211, 4-(1-{6-[5-(2H-Pyrazol-3-yl)-pyridin-2-yloxy]-quinolin-2-ylmethyl}-piperidin-4-yl)-morpholin-3-one]"
2.6 nM,470 nM,"c1cc(-c2ccc(Oc3ccc4c(CN5CCOCC5)n[nH]c4c3)nc2)[nH]n1 [Example 113, 3-Morpholin-4-ylmethyl-6-[5-(2H-pyrazol-3-yl)-pyridin-2-yloxy]-1H-indazole]"

# Reference: patent US9403830B2, “Inhibitors of leukotriene production” (Boehringer Ingelheim International GmbH, priority 2012, dated 2016)
